Reference: US20160058743A1, “METHODS FOR TREATING SENSORIMOTOR IMPAIRMENTS ASSOCIATED WITH CERTAIN TYPES OF STROKE USING AMINOPYRIDINES” (ACORDA THERAPEUTICS, INC., priority 2013, published 2016)
Where “and” joins values, the source holds several entries; their conditions need not be identical. Equal entries are not always repeated. Entries after “also recorded” stand apart in the source; their conditions may differ. Where two headings read alike, the source gives them in different places.

Assays:
[1] = tested on: rats with middle cerebral artery occlusion (MCAO); test: Forelimb placing test after MCAO; format: in vivo, Sprague Dawley rats
[2] = tested on: rats with middle cerebral artery occlusion (MCAO); test: Hindlimb placing test after MCAO; format: in vivo, Sprague Dawley rats
Source text: In particular, the MCAO model in Sprague Dawley rats that was utilized in the experiments presented below mimics the conditions in human ischemic stroke. In this model, focal cerebral infarcts were made by permanent occlusion of the proximal right middle cerebral artery (MCA) using a modification of the method of Tamura et al. (No To Shinkei 1986; 38:747-51). Briefly, the temporalis muscle was bisected and reflected through an incision made midway between the eye and the ear canal. The proximal MCA was exposed through a subtemporal craniectomy without removing the zygomatic arch and without transecting the facial nerve.
In this experiment, Sprague Dawley rats were anesthetized, subjected to a surgery resulting in middle cerebral artery occlusion (MCAO), treated with and without 4-aminopyridine and behavioral assessments were performed as described below. Treatment was initiated at 4 weeks after stroke.
Dosing and Treatment: Rats were treated in accordance with the dosing schedule shown in Tables 2A, 2B, 3 and FIG. 2, with each Phase being a two week period of time. A solution of 4-AP was used in this experiment. Dosing was started at 4 weeks after ischemic event. 4-aminopyridine was dissolved in water for injection (WFI, Cellgro) and sterile filtered. Final concentrations of 0.315 mg/mL or 1.0 mg/mL of 4-aminopyridine were delivered at 2 mL/kg by gastric gavage, resulting in final doses of 0.63 mg/kg and 2 mg/kg respectively. Vehicle control treatment was WFI delivered at 2 mL/kg by gastric gavage. This study was divided into three treatment phases (1-3) with each randomized cohort of animals receiving a different dose level during each of the treatment phases. Starting on day 30 after MCAO (Day 30, start of phase 1), the animals received gavage dosing of solutions (2 mL/kg) approximately 12 hours apart, for a total of five doses. The same schedule was repeated with different treatment on Day 44 and Day 58 for phase 2 and 3 of the study, respectively. Animals were not treated during the 10 days between phases (washout period).
Treatment groups: Dosing was started 4 weeks after MCAO surgery. During these 4 weeks, weekly behavioral assessments, as defined below, were performed. Two dose levels of 4-AP plus vehicle control were assessed, with treatment starting at 4 weeks after ischemic event. All dosing was via gastric gavage, volume not to exceed 2 mL/kg. Animals were given the first dose and behavioral assessments were performed starting 60 minutes after dosing. Animals then received the second dose that day at the appropriate time and b.i.d (preferably every 12 hours) thereafter for 2 more days (3 total days of dosing, 5 total doses). One hour after the 5th dose, animals were subjected to behavioral assessments as defined below. Following the final behavioral assessment, drug was withdrawn for 10 or 11 days, behavior was re-assessed, and then animals were re-challenged with a cross-over treatment (Phase 2 of Table 2B) as described in Tables 2A, 2B and 3, followed by the same behavioral testing and dosing regimen. This cross-over was repeated one more time as well (Phase 3 of Table 2B) (see FIG. 2).
Behavioral test details: Behavioral evaluations were done by evaluators blinded to treatment assignment. Blinded assessments of sensorimotor function were performed just prior to MCAO surgery, 24 hours after MCAO surgery and weekly thereafter until the first phase of dosing using limb placing and body swing behavioral tests. As described above, behavioral assessments were timed exactly with dosing times. Animals were tested one hour after the 1st and 5th doses of each phase (i.e., Days 30 and 32 of the first phase, Days 44 and 46 of the second phase; and Days 58 and 60 of the third phase); animals were also tested during the washout periods on Days 42 and 56. Animals were given the first dose, behavioral assessments were performed starting 60 minutes later, and blood was collected 90 minutes after dosing. […]

[3] = cited from earlier work
[4] = 4-aminopyridine plasma levels 90 min after dosing (LC-MS/MS); format: in vivo, Sprague Dawley rats; conditions: Sprague Dawley, rat, oral, read-out: Mean (SE) 4-aminopyridine Plasma Level
Experimental: Blood sampling: After the on-drug behavior assessments were completed (Days 30, 32, 44, 46, 58 and 60), approximately 300 microliter blood sample was taken exactly 90 min after dosing to assess 4-AP plasma levels at that time. Blood was collected from the saphenous vein of each animal. Blood was collected into K3 EDTA tubes and centrifuged at 10,000 rpm for 10 minutes at 4 degrees C. Plasma was obtained, frozen and stored at approximately −80 C. Samples were analyzed for 4-AP levels. 4-AP concentration was determined using a validated liquid chromatography with tandem mass spectrometric detection method in positive electrospray mode.
Treatment groups: Animals had MCAO surgery and were allowed to recover for 56 days. Animals were then randomized into 2 groups based on their baseline behavior. Par oral dosing b.i.d. was initiated in the evening of Day 56 after MCAO. Behavior testing during dosing periods was started 1 hour after dosing. Blood was collected via saphenous vein just prior to and during treatment phases just after behavioral testing (90 minutes post dosing). All dosing was via gastric gavage, volume not to exceed 2 mL/kg.
Blood sampling: 300 microliter blood sample was collected from the saphenous vein of each animal on Day 56 just prior to the first dose and then exactly 90 min after the 6 dose at each dose level. Blood was collected, centrifuged, stored and analyzed as described in Example 2, above.

Body weight of MCAO rats = format: in vivo, Sprague Dawley rats; conditions: individual animals and group Mean
Source text: Tables 16-18 show Cylinder Test Total Score (% of overall asymmetry) for each of Groups 1-3.

Q: For `Nc1ccncc1` [4-AP, 4-aminopyridine], which “Forelimb placing compared to vehicle” value ([1]; Example 17, 0.5 mg/kg b.i.d. p.o., Day 59 post-MCAO, p<0.001) is on record?
A: The value was “significantly improved in forelimb placing”.

Q: And the “Forelimb test compared to vehicle” value ([1]; Example 17, 1 mg/kg b.i.d. p.o., Day 62 post-MCAO, p<0.001)?
A: Its value is “measureable improvement”.

Q: What about the “Forelimb function compared to vehicle” value ([1]; Example 17, 2 mg/kg b.i.d. p.o., Day 65 post-MCAO, p<0.0001) of the same compound?
A: Its value is “significant improvements”.

Q: What about the “Effect on hindlimb function (hindlimb placing test)” value ([2]; Example 2, low (0.63 mg/kg) or high (2 mg/kg) dose b.i.d. p.o., started 4 weeks post MCAO, dose-responsive, reversible) of the same compound?
A: Its value is “effective to improve hindlimb function; also recorded: significant improvement”.

Q: And the “Hindlimb Placing Total Score” value ([2]; Group 1, D 32 post-MCAO, High 4-AP 2.0 mg/kg b.i.d. p.o., 1 h after 5th dose, group Mean, N=15, 0=normal, 6=maximally impaired)?
A: The value was 0.97.

Q: What about the “Hindlimb Placing Total Score” value ([2]; Group 2 mean, D 58 after MCAO, phase 3, high dose (sequence lvh, b238, inferred)) of the same compound?
A: Its value is 0.83.

Q: And the “Hindlimb Placing Total Score” value ([2]; Group 2 mean, D 60 after MCAO, phase 3, high dose (sequence lvh, b238, inferred))?
A: The value was 0.23.

Q: What about the “Hindlimb Placing Total Score” value ([2]; Group 3 mean, D 44 after MCAO, phase 2) of the same compound?
A: Its value is 0.90.

Q: And the “Hindlimb Placing Total Score” value ([2]; Group 3 mean, D 46 after MCAO, phase 2)?
A: The value was 0.30.

Q: What about the half life ([3]; Hayes et al., J. Clin. Pharmacol. 2003) of the same compound?
A: Its half life is 1 to 1.5 h.

Q: And the “4-AP plasma concentrations obtained in clinical studies” value ([3]; typical, (94 ng/mL^−1))?
A: The value was < 1 µM.

Q: What about the concentration at 90 min ([4]; 0.5 mg/kg, Example 17 dose escalation, Dose Level 0.5 mg/kg b.i.d. p.o., 90 min after 6th dose) of the same compound?
A: Its concentration at 90 min is 68.3 ng/mL.

Q: What about the concentration at 90 min ([4]; 0.63 mg/kg, Group 1, Phase 2, Low 0.63 mg/kg b.i.d. p.o., 90 min after dosing) of the same compound?
A: Its concentration at 90 min is 64 ng/mL.

Q: What about the concentration at 90 min ([4]; 0.63 mg/kg, Group 2, Phase 1, Low 0.63 mg/kg b.i.d. p.o., 90 min after dosing) of the same compound?
A: The concentration at 90 min was 78.1 ng/mL.

Q: And the concentration at 90 min ([4]; 0.63 mg/kg, Group 3, Phase 3, Low 0.63 mg/kg b.i.d. p.o., 90 min after dosing)?
A: The concentration at 90 min was 61.8 ng/mL.

Q: What about the concentration at 90 min ([4]; 1 mg/kg, Example 17 dose escalation, Dose Level 1.0 mg/kg b.i.d. p.o., 90 min after 6th dose) of the same compound?
A: The concentration at 90 min was 114 ng/mL.

Q: And the concentration at 90 min ([4]; 2 mg/kg, Example 17 dose escalation, Dose Level 2.0 mg/kg b.i.d. p.o., 90 min after 6th dose)?
A: Its concentration at 90 min is 185 ng/mL.

Q: And the concentration at 90 min ([4]; 2 mg/kg, Group 1, Phase 1, High 2.0 mg/kg b.i.d. p.o., 90 min after dosing)?
A: The concentration at 90 min was 142 ng/mL.

Q: What about the concentration at 90 min ([4]; 2 mg/kg, Group 2, Phase 3, High 2.0 mg/kg b.i.d. p.o., 90 min after dosing) of the same compound?
A: The concentration at 90 min was 144 ng/mL.

Q: What about the concentration at 90 min ([4]; 2 mg/kg, Group 3, Phase 2, High 2.0 mg/kg b.i.d. p.o., 90 min after dosing) of the same compound?
A: The concentration at 90 min was 129 ng/mL.

Q: What about the “Weight” value (Body weight of MCAO rats; Group 1, D 1) of the same compound?
A: The value was 291 g and 317 g (2×) and 306 g and 315 g and 323 g and 294 g.

Q: What about the “Weight” value (Body weight of MCAO rats; Group 1, D 7) of the same compound?
A: Its value is 328 g and 361 g and 359 g and 375 g and 369 g and 340 g and 366 g.

Q: What about the “Weight” value (Body weight of MCAO rats; Group 1, D 14) of the same compound?
A: Its value is 375 g and 403 g and 394 g and 421 g and 436 g and 382 g and 422 g.

Q: And the “Weight” value (Body weight of MCAO rats; Group 1, D 21)?
A: Its value is 399 g and 419 g and 416 g and 444 g and 494 g and 428 g and 469 g.

Q: And the “Weight” value (Body weight of MCAO rats; Group 1, D 28)?
A: Its value is 427 g and 451 g and 436 g and 484 g and 525 g and 457 g and 506 g.

Q: What about the “Weight” value (Body weight of MCAO rats; Group 1, D 30) of the same compound?
A: Its value is 425 g and 450 g and 435 g and 490 g and 544 g and 470 g and 512 g.

Q: What about the “Weight” value (Body weight of MCAO rats; Group 1, D 32) of the same compound?
A: The value was 411 g and 441 g and 417 g and 470 g and 515 g and 454 g and 496 g.

Q: What about the “Weight” value (Body weight of MCAO rats; Group 1, D 42) of the same compound?
A: Its value is 448 g and 491 g and 449 g and 499 g and 565 g and 479 g and 543 g.

Q: And the “Weight” value (Body weight of MCAO rats; Group 1, D 44)?
A: The value was 455 g and 501 g and 447 g and 511 g and 566 g and 480 g and 545 g and 454 g.

Q: What about the “Weight” value (Body weight of MCAO rats; Group 1, D 46) of the same compound?
A: Its value is 448 g and 490 g and 440 g and 494 g and 570 g and 488 g and 552 g.

Q: What about the “Weight” value (Body weight of MCAO rats; Group 1, D 56) of the same compound?
A: Its value is 476 g and 509 g and 452 g and 523 g and 612 g and 496 g and 576 g.

Q: What about the “Weight” value (Body weight of MCAO rats; Group 1, D 58) of the same compound?
A: Its value is 480 g and 520 g and 460 g and 530 g and 625 g and 512 g and 585 g.

Q: What about the “Weight” value (Body weight of MCAO rats; Group 1, D 60) of the same compound?
A: The value was 475 g and 511 g and 456 g and 527 g and 615 g and 509 g and 587 g.

Q: What about the “Weight” value (Body weight of MCAO rats; Group 1, D −1) of the same compound?
A: The value was 305 g and 317 g and 311 g and 332 g and 340 g and 324 g and 330 g and 313 g.
